The results in this text go back to patent US20110195147A1, “IRON SOURCE PRODUCT IN THE FORM OF CAPSULES AND PROCESS FOR THEIR PREPARATION” (AB-BIOTICS S.A., priority 2008, published 2011).

For the series, the system named is HELA cell line. The series can be described thus: Capsule cytotoxicity, EZ4U cell proliferation and cytotoxicity assay. The note with it: for % Viability 24 h: 24 h incubation; for % Viability 72 h: 72 h incubation. As for the experimental part: The test involved incubating cells from the HELA cell line with the substances against which the cytotoxicity was going to be tested, this test being commonly used as a way to check the toxicity. The tested compounds included the capsules, as well as their main constituents separately: the iron salt used in the capsules (ferric saccharate), and sodium alginate. A negative control, which contained HELA growth medium alone, was also prepared, and used as the reference growth.
The test media were prepared under sterile conditions. Capsules prepared as in Example 1 (Capsule 0; batch 2 of Example 3) were sterilised in an autoclave (20 min, 110° C.). Using sterile material, 72 mg of capsules (capsules medium), 17 mg of ferric saccharate (iron salt medium) and 18 mg of sodium alginate (alginate medium) were each dissolved in 50 mL of HELA growth medium. […] 1:1, 1:10 and 1:100 dilutions of each of the test media were prepared by diluting the following amounts of capsules, iron salt or alginate medium with fresh HELA growth medium: • 1:1 20 μL+0 μL fresh HELA medium • 1:10 2 μL+18 μL fresh HELA medium • 1:100 0.2 μL+19.8 μL fresh HELA medium
3500 HeLa cells were cultured in 36 wells of two 96 well plates: 9 control wells and 27 for triplicates of 3 concentrations of 3 products. Medium was added to each well up to 100 μL. The cells were incubated at 37° C. for 24 h. 20 μL of each test media and 80 μL of fresh medium were added to each well. In the controls only 100 μL of fresh medium were added. One of the plates was incubated for 24 h and the other one for 72 h. The viability of the cells was measured after 24 and 72 h of incubation using the EZ4U non-radioactive cell proliferation and cytotoxicity assay (Biomedica Medizinproducte GmbH).
The results were expressed as percentage of growth with respect to the controls, i. e. as the percentage of viability, which is computed as the number of living cells in any of the test solutions (capsules, ferric saccharate or sodium alginate) divided by the number of living cells in the negative control, and expressed as percentage.

Consider ferric saccharate [Iron salt], for which the “% Viability 24 h” value is recorded as 76.3% ± 9.7 (dilution 1:1, relative to negative control); 101.7% ± 8.5 (dilution 1:10); 95.7% ± 3.2 (dilution 1:100). The “% Viability 72 h” value runs as follows: (dilution 1:1) 66.8% ± 23.0; (dilution 1:10) 62.0% ± 15.7; (dilution 1:100) 68.7% ± 15.3.

For the substance sodium alginate, the “cytotoxicity (in words)” value is recorded as “No toxicity was observed”.
